The values below come from article PMC10783497 (2023).

One may read the Kd as a measure of binding affinity in units of concentration. As a reminder, the EC50 is the concentration giving half of the maximal effect.

In experiment [1] the test system is PS2.M (DNA, G4) GTGGGTAGGGCGGGTTGG
Nature of the experiment: ligand fluorescence titration. To be noted: 100 mM KCl; 10 mM Tris-HCl, pH 7.6; no CDHP.

For experiment [2], the system named is Malachite green (MG) aptamer (RNA, aptamer) GGAUCCCGACUGGCGAGAGCCAGGUAACGAAUGGAUCC
Description: fluorescence spectrum. To be noted: 100 mM KCl, 5 mM MgCl2; 10 mM HEPES, pH 7.4; 1 μM CV; also in 2 M CDHP.

In experiment [3] the test system is Scrambled MG aptamer (RNA, other) ACCGUUGCCGGACGAGACUGAUACGCGGAAGUCGCAAG
Nature of the experiment: fluorescence spectrum. To be noted: 100 nM scrambled RNA.

The test system of experiment [4] is Malachite green (MG) aptamer (RNA, aptamer) GGAUCCCGACUGGCGAGAGCCAGGUAACGAAUGGAUCC
Description: fluorescence light-up titration of MG. To be noted: 100 mM KCl, 5 mM MgCl2; 10 mM Na-HEPES, pH 7.4; 100 nM aptamer; no CDHP.

Experiment [5] deals with Cortisol aptamer (DNA, aptamer) CTCTTGGGACGACGCCCGCATGTTCCATGGATAGTCTTGACTAGTCGTCCC
Description: aptasensor strand-displacement fluorescence (FAM/BHQ1). To be noted: aqueous buffer and 2 M CDHP; 3'-FAM signaling strand GTCGTCCCAAGAG hybridized; 1-10 ng/ml cortisol.

Experiment [6] has as its system ATP aptamer (DNA, aptamer) AATTCTGGGGGAGCCTTTTGTGGGTAGGGCGGGTTGGTTTTGCCCCGGAGGAGGAATT
Description: structure-switching FAM/BHQ1 fluorescence quenching. To be noted: 300 mM NaCl, 5 mM MgCl2, 20 mM Tris-HCl, pH 7.4; for binding: 2 M CDHP, AD-13 hybridized, 1 mM nucleotide tested.

`CCc1c(C)c2cc3nc(cc4nc(cc5c(CC)c(C)c(cc1[nH]2)n5C)C(C)=C4CCC(=O)O)C(CCC(=O)O)=C3C`: in experiment [1], the Kd came to 520.6 nM.

Regarding `CN(C)c1ccc(C(=C2C=CC(=[N+](C)C)C=C2)c2ccc(N(C)C)cc2)cc1`, the binding entry in experiment [2] is recorded as “no”. Consider `CN(C)c1ccc(C(=C2C=CC(=[N+](C)C)C=C2)c2ccccc2)cc1`, for which, in experiment [3], the binding result is on record as “no”. In experiment [4], this molecule had a Kd of 257.3 nM. For `C[C@]12CCC(=O)C=C1CC[C@@H]1[C@@H]2[C@@H](O)C[C@@]2(C)[C@H]1CC[C@]2(O)C(=O)CO`, in experiment [5], the binding entry is listed as “yes”. The molecule `Cc1ccc2c(c1)sc(-c1ccc(N(C)C)cc1)[n+]2C` registered a Kd in experiment [1] of 1444.7 nM. Take `Nc1ccn([C@@H]2O[C@H](COP(=O)(O)OP(=O)(O)OP(=O)(O)O)[C@@H](O)[C@H]2O)c(=O)n1`: the binding entry in experiment [6] is reported as “no”. Same read-out and setting: in the case of `Nc1nc2c(ncn2[C@@H]2O[C@H](COP(=O)(O)OP(=O)(O)OP(=O)(O)O)[C@@H](O)[C@H]2O)c(=O)[nH]1` it was “no”. `Nc1ncnc2c1ncn2[C@@H]1O[C@H](COP(=O)(O)OP(=O)(O)OP(=O)(O)O)[C@@H](O)[C@H]1O`: the EC50 in experiment [6] (antisense DNA AD-13 displaced, no CDHP) turned out to be 384000 nM. Turning to `O=c1ccn([C@@H]2O[C@H](COP(=O)(O)OP(=O)(O)OP(=O)(O)O)[C@@H](O)[C@H]2O)c(=O)[nH]1`, the binding entry in experiment [6] is listed as “no”.
